What was measured:
[1] = system: NO metabolite (NOx:NO2+NO3); assay: Plasma NO metabolite (NOx) after oral administration to rabbits (Experimental Example 2); type: in vivo; conditions: male New Zealand rabbits, fasted 16 hr, oral by sonde, groups 1 and 2: 2.85 mmol/kg, group 3: 1.43 mmol/kg each
Procedure: (§1) 14-Week-old male New Zealand rabbits (KITAYAMA LABES Co., Ltd.) were purchased, preliminarily bred for 28 days and divided into 3 groups (n=3 or 4). After fasting for 16 hr, L-citrulline and L-arginine were orally administered to the rabbits of group 1 and group 2, respectively, by a sonde to achieve 2.85 mmol/kg per rabbit for both (499.3 mg/kg and 496.5 mg/kg, respectively). Moreover, L-citrulline and L-arginine were orally administered to the rabbits of group 3 by a sonde to achieve 1.43 mmol/kg per rabbit (250.5 mg/kg and 249.1 mg/kg, respectively).
(§2) The blood was collected from the ear vein before administration, and 30 min, 1, 2 and 4 hr after administration, and subjected to quantification of L-arginine, NO metabolite and cGMP in plasma. The blood was collected in a 1.5 mL tube containing 1% heparin dispensed thereto in advance (for quantification of L-arginine) and a disodium ethylenediaminetetraacetate (EDTA-2Na)-added tube (for quantification of NO metabolite and cGMP), and centrifuged (12000 rpm, 10 min, 4° C.) to give plasma. In heparin plasma thereafter, 3% sulfosalicylic acid in the same amount as the plasma was added and blended, and the mixture was stood still on ice for 1 hr and centrifuged (12000 rpm, 10 min, 4° C.) to give deproteinized plasma as a sample for analysis.
(§3) L-arginine in the sample for analysis was quantified using an automatic amino acid analyzer (JOEL JLC-500/V), NO metabolite (NOx:NO2+NO3) was quantified using a nitrogen oxide analyzer (Eicom ENO10), and cGMP was quantified by […] (Amersham Pharmacia RPN226).
(§4) Moreover, the area under the blood concentration-time curves of L-arginine, NO metabolite and cGMP in plasma were calculated, and the results are shown in Table 2-Table 4.

cGMP = assay: Plasma cGMP after oral administration to rabbits (Experimental Example 2); type: in vivo; conditions: male New Zealand rabbits, fasted 16 hr, oral by sonde, groups 1 and 2: 2.85 mmol/kg, group 3: 1.43 mmol/kg each
Procedure: as §1, §2, §3, §4

For NC(=O)NCCC[C@H](N)C(=O)O [group 1, L-citrulline], the “AUC of NO metabolite in plasma, 0-30 min” value [1] was 8.1 nmol·h/mL, the “AUC of NO metabolite in plasma, 0-1 hr” value [1] was 25.7 nmol·h/mL and the “AUC of cGMP in plasma, 0-30 min” value (cGMP) was 0.033 nmol·h/mL. The “AUC of cGMP in plasma, 0-1 hr” value (cGMP) was 0.12 nmol·h/mL.
N=C(N)NCCC[C@H](N)C(=O)O [group 2, L-arginine] was tested, and the “AUC of NO metabolite in plasma, 0-30 min” value [1] was 0.3 nmol·h/mL, the “AUC of NO metabolite in plasma, 0-1 hr” value [1] was 10.1 nmol·h/mL and the “AUC of cGMP in plasma, 0-30 min” value (cGMP) was 0.028 nmol·h/mL. For the same molecule, the “AUC of cGMP in plasma, 0-1 hr” value (cGMP) was 0.10 nmol·h/mL.

Source: patent publication US9622998B2, “Rapid-acting, blood-arginine-level-increasable oral preparation comprising citrulline and arginine” (Kyowa Hakko Bio Co., Ltd., priority 2007, dated 2017)
